Source: patent US20240317746A1, “CRYSTALLINE FORMS OF AN AZETIDINE PARP1 INHIBITOR” (XinThera, Inc., priority 2023, published 2024)
Converted amounts (≈) assume the structure as drawn. Like-named read-outs stand apart in the source and are kept apart here.

Columns and labels:
[1] = Polymorph screening (slurry conversion, cooling, evaporation, anti-solvent, cyclic heating-cooling, salt break); details: about 20 mg in 1 mL
Procedure: Form I was obtained from most polymorph screening experiments. […]
Cyclic heating-cooling experiments were carried out in Crystal 16 Parallel Crystallizer. About 20 mg of Compound 1 (starting material) was added into 1 mL solvents, and a heating-cooling program was performed: • 1. Equilibrated first at 20° C., and heated to 75 or 100° C. at 0.2° C./min (the elevated temperature is set according to boiling point of solvent). • 2. Held at 75 or 100° C. for 1 h. • 3. Cooled to 20° C. at 0.2° C./min and hold for 1 h. • 4. Repeated the above procedures once.
Turbidimeter from Crystal 16 recorded if solids were completely dissolved during heating. Form I was obtained in most solvent systems. […]

[2] = Preliminary solubility test: estimated solubility at RT by visual observation; assay type: physicochemical
Procedure: The solubility of Compound 1 (starting material) was estimated at RT in 18 single solvents and 6 solvent mixtures by visual observation. Approximately 5 mg solids were weighed into 8 mL glass vial, and then solvent was added stepwise until solids were dissolved completely or a total of solvent volume reached 5 mL. […] The solubility was estimated and for reference only.

[3] = Stability relationship study (slurry turnover of Form II); assay type: physicochemical
Procedure: Form II was prepared via heating starting material to 220° C. in DSC pans. Then, about 15 mg of Form II was stirred in 0.5 mL of selected solvent at desired temperatures for 2 and 5 days. Solid samples were collected by filtration and characterized by XRPD.

| Hot Dissolution ([1]; 2-MeTHF, 75° C.) | Hot Dissolution ([1]; ACN/Water (9/1), 75° C.) | Hot Dissolution ([1]; DMAc/Toluene (1/2), 100° C.) | Hot Dissolution ([1]; EtOH, 75° C.) | Hot Dissolution ([1]; MEK, 75° C.) | Hot Dissolution ([1]; MIBK, 100° C.) | Hot Dissolution ([1]; n-Butanol/Anisole (1/1), 100° C.) | solubility ([2]; DCM/MeOH (1/1), organic solvent or mixture, thermodynamic from solid, DCM/MeOH (1/1), read-out: Solubility) [µg/mL] | solubility ([2]; DCM/MeOH (4/1), listed as Compound 1 (starting material)) | solubility ([2]; DMSO, DMF, DMAc (each), organic solvent or mixture, thermodynamic from solid, DMSO, DMF, DMAc, read-out: Solubility) [µg/mL] | solubility ([2]; organic solvent or mixture, thermodynamic from solid, Acetone/Water (9/1), ACN/Water (9/1), MeOH/Water (9/1), Acetone/EtOH (1/1), THF, MeOH, read-out: Solubility) [µg/mL] | solubility ([2]; water, thermodynamic from solid, EtOH, IPA, Acetone, EtOAc, ACN, Water, DCM, 2-MeTHF, Toluene, MTBE, MEK, Heptane, read-out: Solubility) [µg/mL] | Slurry turnover output (XRPD) Day 2 ([3]; ACN, 80° C.) | Slurry turnover output (XRPD) Day 5 ([3]; ACN, 80° C.) | Slurry turnover output (XRPD) Day 2 ([3]; Acetone, 50° C.) | Slurry turnover output (XRPD) Day 2 ([3]; Acetone, RT) | form after slurry in selected solvents (XRPD) ([3]; stirred at desired temperatures (RT to 80° C.) for 2 and 5 days) | SMILES |
| --- | --- | --- | --- | --- | --- | --- | --- | --- | --- | --- | --- | --- | --- | --- | --- | --- | --- |
| Yes | No | Yes | Yes | No | No | Yes | 5000 to 20000 (≈ 11.4 to 45.5 mM) | 50~100 mg/mL | 20000 to 50000 (≈ 45.5 to 114 mM) | 1000 to 5000 (≈ 2.27 to 11.4 mM) | < 1000 | – | – | – | – | – | C[C@@H]1[C@@H](Oc2ccc(C(=O)NC3CC3)nc2)CN1Cc1cnc2cc(Cl)c(=O)[nH]c2c1 [Compound 1, 5-(((2R,3S)-1-((7-chloro-6-oxo-5,6-dihydro-1,5-naphthyridin-3-yl)methyl)-2-methylazetidin-3-yl)oxy)-N-cyclopropylpicolinamide] |
| – | – | – | – | – | – | – | – | – | – | – | – | Form I + II | Form I | Form I | Form I | converted to Form I at all conditions | C[C@@H]1[C@@H](Oc2ccc(C(=O)NC3CC3)nc2)CN1Cc1cnc2cc(Cl)c(=O)[nH]c2c1 [Freebase Form II, 5-(((2R,3S)-1-((7-chloro-6-oxo-5,6-dihydro-1,5-naphthyridin-3-yl)methyl)-2-methylazetidin-3-yl)oxy)-N-cyclopropylpicolinamide] |
